Earlier results on five compounds are cited in patent publication US20230165856A1, “DAPAGLIFLOZIN AND AMBRISENTAN FOR THE PREVENTION AND TREATMENT OF COVID-19” (AstraZeneca AB, priority 2020, published 2023).

Structures are written as SMILES. Like-named read-outs stand apart in the source and are kept apart here.

Data set [1] deals with T1, endothelin A (ETA) receptor (Homo sapiens, UniProt P25101).
T1 sequence (P25101 21-427): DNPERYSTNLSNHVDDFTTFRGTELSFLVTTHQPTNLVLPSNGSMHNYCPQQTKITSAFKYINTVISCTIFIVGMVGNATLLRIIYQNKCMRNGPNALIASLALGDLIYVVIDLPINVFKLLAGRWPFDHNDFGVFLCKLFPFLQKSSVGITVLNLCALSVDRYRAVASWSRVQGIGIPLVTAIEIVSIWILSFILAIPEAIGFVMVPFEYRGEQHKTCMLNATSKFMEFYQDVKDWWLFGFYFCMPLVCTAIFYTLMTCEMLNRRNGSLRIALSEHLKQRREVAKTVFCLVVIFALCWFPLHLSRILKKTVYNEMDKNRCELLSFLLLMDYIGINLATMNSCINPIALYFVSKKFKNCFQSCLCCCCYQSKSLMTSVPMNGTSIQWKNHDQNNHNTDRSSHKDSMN

The conditions of data set [2]: human, in vivo.
For data set [3] the following is noted: experimental pig model of acute lung injury.
The conditions of data set [4]: endotoxaemic sheep.
The conditions of data set [5]: HF patients with and without type 2 diabetes mellitus.

In the case of `COC(c1ccccc1)(c1ccccc1)[C@H](Oc1nc(C)cc(C)n1)C(=O)O` [Ambrisentan, (2S)-2-[(4,6-dimethylpyrimidin-2-yl)oxy]-3-methoxy-3,3-diphenylpropanoic acid], the “selectivity for the ETA versus the ETB receptor” value in data set [1] is reported as “approximately 4000 fold”. In addition, the “selectivity for the ET-A receptor compared to bosentan” value in data set [1] (compared to bosentan) is “greater selectivity”. As to `COc1ccccc1Oc1c(NS(=O)(=O)c2ccc(C(C)(C)C)cc2)nc(-c2ncccn2)nc1OCCO` [Bosentan], in data set [2], the RVSP result was “rapid and sustained improvement”; the oxygenation result is on record as “gradual improvement”.

Take `COc1cc(OC)nc(O[C@H](C(=O)O)C(OC)(c2ccccc2)c2ccccc2)n1` [LU-135252]: in data set [3], the oxygenation entry is reported as “improved oxygenation”. For `COc1ccccc1Oc1c(NS(=O)(=O)c2ccc(C(C)C)cn2)nc(-c2ccnc(-c3nnn[nH]3)c2)nc1OCCO` [Tezosentan], the lung injury entry in data set [4] is “attenuated lung injury”.

As to `CCOc1ccc(Cc2cc([C@@H]3O[C@H](CO)[C@@H](O)[C@H](O)[C@H]3O)ccc2Cl)cc1` [dapagliflozin], in data set [5], the “cardiovascular (CV) death” value is “reduced” and the “risk for hospitalization for heart failure (HF)” value is reported as “reduce the risk”.
